Measurements from patent US4868321A, “Isothiocyanate intermediates” (FMC Corporation, priority 1988, dated 1989).

What was measured:
Format in all cases: in vivo
[1] = test system: Cotton; experiment: Preemergence Herbicidal Activity, Cotton; details: Gossypium hirsutum, pre-emergence
Source text: (§1) The herbicidal data in the following Tables 3 and 4 was obtained in the manner described in PCT published application no. WO 85/01939, previously mentioned, usually employing solutions of the herbicidal compound in 50/50 acetone/water mixtures. In those tables, the test compounds are identified by numbers which correspond to those in Table 1, "kg/ha" is kilograms per hectare, and "% C" is percent control.

[2] = test system: Soybean; experiment: Preemergence Herbicidal Activity, Soybean; details: Glycine max, pre-emergence
Source text: (§2) The herbicidal data in the following Tables 3 and 4 was obtained in the manner described in PCT published application no. […] In those tables, the test compounds are identified by numbers which correspond to those in Table 1, "kg/ha" is kilograms per hectare, and "% C" is percent control.

[3] = test system: Field Corn; experiment: Preemergence Herbicidal Activity, Field Corn; details: Zea mays, pre-emergence
Source text: as §2

[4] = test system: Rice; experiment: Preemergence Herbicidal Activity, Rice; details: Oryza sativa, pre-emergence
Source text: as §2

[5] = test system: Wheat; experiment: Preemergence Herbicidal Activity, Wheat; details: Triticum aestivum, pre-emergence
Source text: as §2

[6] = test system: Field Bindweed; experiment: Preemergence Herbicidal Activity, Field Bindweed; details: pre-emergence
Source text: as §1

[7] = test system: Morningglory; experiment: Preemergence Herbicidal Activity, Morningglory; details: Ipomoea, pre-emergence
Source text: as §1

[8] = test system: Velvetleaf; experiment: Preemergence Herbicidal Activity, Velvetleaf; details: Abutilon theophrasti, pre-emergence
Source text: as §1

[9] = test system: Barnyardgrass; experiment: Preemergence Herbicidal Activity, Barnyardgrass; details: Echinochloa crus-galli, pre-emergence
Source text: as §2

[10] = test system: Green Foxtail; experiment: Preemergence Herbicidal Activity, Green Foxtail; details: Setaria viridis, pre-emergence
Source text: as §2

[11] = test system: Johnsongrass; experiment: Preemergence Herbicidal Activity, Johnsongrass; details: Sorghum halepense, pre-emergence
Source text: as §2

[12] = test system: Cotton; experiment: Postemergence Herbicidal Activity, Cotton; details: Gossypium hirsutum, post-emergence
Source text: as §1

[13] = test system: Soybean; experiment: Postemergence Herbicidal Activity, Soybean; details: Glycine max, post-emergence
Source text: as §2

[14] = test system: Field Corn; experiment: Postemergence Herbicidal Activity, Field Corn; details: Zea mays, post-emergence
Source text: as §2

[15] = test system: Rice; experiment: Postemergence Herbicidal Activity, Rice; details: Oryza sativa, post-emergence
Source text: as §2

[16] = test system: Wheat; experiment: Postemergence Herbicidal Activity, Wheat; details: Triticum aestivum, post-emergence
Source text: as §2

[17] = test system: Field Bindweed; experiment: Postemergence Herbicidal Activity, Field Bindweed; details: post-emergence
Source text: as §1

[18] = test system: Morningglory; experiment: Postemergence Herbicidal Activity, Morningglory; details: Ipomoea, post-emergence
Source text: as §1

[19] = test system: Velvetleaf; experiment: Postemergence Herbicidal Activity, Velvetleaf; details: Abutilon theophrasti, post-emergence
Source text: as §1

[20] = test system: Barnyardgrass; experiment: Postemergence Herbicidal Activity, Barnyardgrass; details: Echinochloa crus-galli, post-emergence
Source text: as §2

[21] = test system: Green Foxtail; experiment: Postemergence Herbicidal Activity, Green Foxtail; details: Setaria viridis, post-emergence
Source text: as §2

[22] = test system: Johnsongrass; experiment: Postemergence Herbicidal Activity, Johnsongrass; details: Sorghum halepense, post-emergence
Source text: as §2

## CS(=O)(=O)N(c1cc(-n2nnn(CCCF)c2=O)c(F)cc1Br)S(C)(=O)=O [Compound 10, 1-(4-bromo-2-fluoro-5-[bis(N--methylsulfonyl)amino]phenyl]-1,4-dihydro-4-(3-fluoropropyl)-5H--tetrazol-5-one]
[1]; 1.0 kg/ha
  plant injury at 1000 g/ha: 100%
[2]; 1.0 kg/ha
  plant injury at 1000 g/ha: 80%
[3]; 1.0 kg/ha
  plant injury at 1000 g/ha: 95%
[4]; 1.0 kg/ha
  plant injury at 1000 g/ha: 95%
[5]; 1.0 kg/ha
  plant injury at 1000 g/ha: 90%
[6]; 1.0 kg/ha
  pest or weed control at 1000 g/ha: 100%
[7]; 1.0 kg/ha
  pest or weed control at 1000 g/ha: 100%
[8]; 1.0 kg/ha
  pest or weed control at 1000 g/ha: 100%
[9]; 1.0 kg/ha
  pest or weed control at 1000 g/ha: 100%
[10]; 1.0 kg/ha
  pest or weed control at 1000 g/ha: 100%
[11]; 1.0 kg/ha
  pest or weed control at 1000 g/ha: 95%
[12]; 1.0 kg/ha
  plant injury at 1000 g/ha: 100%
[13]; 1.0 kg/ha
  plant injury at 1000 g/ha: 95%
[14]; 1.0 kg/ha
  plant injury at 1000 g/ha: 90%
[15]; 1.0 kg/ha
  plant injury at 1000 g/ha: 30%
[16]; 1.0 kg/ha
  plant injury at 1000 g/ha: 60%
[17]; 1.0 kg/ha
  pest or weed control at 1000 g/ha: 100%
[18]; 1.0 kg/ha
  pest or weed control at 1000 g/ha: 100%
[19]; 1.0 kg/ha
  pest or weed control at 1000 g/ha: 100%
[20]; 1.0 kg/ha
  pest or weed control at 1000 g/ha: 100%
[21]; 1.0 kg/ha
  pest or weed control at 1000 g/ha: 100%
[22]; 1.0 kg/ha
  pest or weed control at 1000 g/ha: 100%

## CCS(=O)(=O)N(C)c1cc(-n2nnn(CCCF)c2=O)c(F)cc1Cl [Compound 12, 1-[4-chloro-2-fluoro-5-[(N--ethylsulfonyl-N--methyl)amino]phenyl]-1,4-dihydro-4-(3-fluoropropyl)-5H--tetrazol-5-one]
[1]; 0.5 kg/ha
  plant injury at 500 g/ha: 100%
[2]; 0.5 kg/ha
  plant injury at 500 g/ha: 80%
[3]; 0.5 kg/ha
  plant injury at 500 g/ha: 100%
[4]; 0.5 kg/ha
  plant injury at 500 g/ha: 90%
[5]; 0.5 kg/ha
  plant injury at 500 g/ha: 100%
[6]; 0.5 kg/ha
  pest or weed control at 500 g/ha: 100%
[7]; 0.5 kg/ha
  pest or weed control at 500 g/ha: 100%
[8]; 0.5 kg/ha
  pest or weed control at 500 g/ha: 100%
[9]; 0.5 kg/ha
  pest or weed control at 500 g/ha: 100%
[10]; 0.5 kg/ha
  pest or weed control at 500 g/ha: 100%
[11]; 0.5 kg/ha
  pest or weed control at 500 g/ha: 100%
[12]; 0.5 kg/ha
  plant injury at 500 g/ha: 100%
[13]; 0.5 kg/ha
  plant injury at 500 g/ha: 70%
[14]; 0.5 kg/ha
  plant injury at 500 g/ha: 70%
[15]; 0.5 kg/ha
  plant injury at 500 g/ha: 30%
[16]; 0.5 kg/ha
  plant injury at 500 g/ha: 80%
[17]; 0.5 kg/ha
  pest or weed control at 500 g/ha: 100%
[18]; 0.5 kg/ha
  pest or weed control at 500 g/ha: 100%
[19]; 0.5 kg/ha
  pest or weed control at 500 g/ha: 100%
[20]; 0.5 kg/ha
  pest or weed control at 500 g/ha: 70%
[21]; 0.5 kg/ha
  pest or weed control at 500 g/ha: 70%
[22]; 0.5 kg/ha
  pest or weed control at 500 g/ha: 70%

## CCS(=O)(=O)Nc1cc(-n2nnn(C)c2=O)c(F)cc1Cl [Compound 43, 1-[4-Chloro-2-fluoro-5-(N--ethylsulfonylamino)phenyl]-4,5-dihydro-4-methyl-5H--tetrazol-5-one]
[12]; 2.0 kg/ha
  plant injury at 2000 g/ha: 100%
[13]; 2.0 kg/ha
  plant injury at 2000 g/ha: 50%
[14]; 2.0 kg/ha
  plant injury at 2000 g/ha: 30%
[15]; 2.0 kg/ha
  plant injury at 2000 g/ha: 50%
[16]; 2.0 kg/ha
  plant injury at 2000 g/ha: 50%
[17]; 2.0 kg/ha
  pest or weed control at 2000 g/ha: 100%
[18]; 2.0 kg/ha
  pest or weed control at 2000 g/ha: 100%
[19]; 2.0 kg/ha
  pest or weed control at 2000 g/ha: 95%
[20]; 2.0 kg/ha
  pest or weed control at 2000 g/ha: 50%
[21]; 2.0 kg/ha
  pest or weed control at 2000 g/ha: 40%
[22]; 2.0 kg/ha
  pest or weed control at 2000 g/ha: 70%
